Reference: US10189845B2, “4,6-substituted-pyrazolo[1,5-a]pyrazines as janus kinase inhibitors” (ARRAY BIOPHARMA INC., priority 2014, dated 2019)
Where two headings read alike, the source gives them in different places.

Key:
Type in all cases: biochemical
Human Tyk2 kinase domain = Human Tyk2 kinase domain (Homo sapiens (Human), UniProt P29597); test: Tyk2 Inhibition Assay (Example A, Omnia kinase fluorescence peptide substrate assay); details: TYK2 Enzyme IC50 1 mM ATP, averaged IC50 ranges
Procedure, shortened: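 IC50 values come from a 4-parameter logistic fit of percent-of-control data, with compounds at 2% final DMSO. Reactions held 1 nM His-tag-cleaved Tyk2 (aa 886–1187), 8 μM Omnia Y12 peptide and 1 mM ATP in pH 7.4 HEPES buffer with 10 mM MgCl2, Triton X-100 and DTT. Sox fluorescence (360/485 nm) was monitored kinetically over 45 min.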

JAK1 = JAK1 (Homo sapiens (Human), UniProt P23458); test: JAK1 Inhibition Assay (Example B, Omnia kinase fluorescence peptide substrate assay)
Chain of JAK1 (P23458 whole entry): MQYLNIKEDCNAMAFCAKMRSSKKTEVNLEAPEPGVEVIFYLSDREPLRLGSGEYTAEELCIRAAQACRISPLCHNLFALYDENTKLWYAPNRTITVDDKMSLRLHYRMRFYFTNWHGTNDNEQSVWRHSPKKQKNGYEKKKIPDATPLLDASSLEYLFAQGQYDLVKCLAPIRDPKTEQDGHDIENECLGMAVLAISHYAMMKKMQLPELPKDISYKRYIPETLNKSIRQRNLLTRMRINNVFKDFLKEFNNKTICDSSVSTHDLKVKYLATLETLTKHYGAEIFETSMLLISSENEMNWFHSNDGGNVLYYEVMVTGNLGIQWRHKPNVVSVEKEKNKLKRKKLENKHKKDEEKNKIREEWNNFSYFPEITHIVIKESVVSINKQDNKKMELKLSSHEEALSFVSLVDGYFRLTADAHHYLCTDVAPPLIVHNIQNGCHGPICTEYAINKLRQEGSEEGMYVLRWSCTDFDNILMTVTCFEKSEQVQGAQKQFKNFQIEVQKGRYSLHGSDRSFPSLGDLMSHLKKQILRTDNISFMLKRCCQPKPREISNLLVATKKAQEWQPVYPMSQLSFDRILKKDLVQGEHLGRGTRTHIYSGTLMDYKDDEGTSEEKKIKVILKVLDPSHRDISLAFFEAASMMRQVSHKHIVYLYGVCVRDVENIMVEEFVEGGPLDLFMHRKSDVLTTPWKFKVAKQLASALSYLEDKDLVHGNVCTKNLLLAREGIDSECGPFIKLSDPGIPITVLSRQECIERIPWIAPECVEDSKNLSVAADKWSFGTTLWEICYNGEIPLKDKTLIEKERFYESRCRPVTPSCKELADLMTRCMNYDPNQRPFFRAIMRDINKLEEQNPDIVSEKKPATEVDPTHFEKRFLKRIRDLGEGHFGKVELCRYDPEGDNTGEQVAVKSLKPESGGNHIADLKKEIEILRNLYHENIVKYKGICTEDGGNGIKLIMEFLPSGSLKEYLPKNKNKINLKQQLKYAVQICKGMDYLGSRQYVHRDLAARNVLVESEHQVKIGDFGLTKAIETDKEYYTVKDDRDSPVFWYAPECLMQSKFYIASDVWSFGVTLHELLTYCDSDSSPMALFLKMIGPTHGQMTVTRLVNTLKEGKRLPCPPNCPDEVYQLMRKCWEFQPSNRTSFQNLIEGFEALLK
Procedure, shortened: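 Kinetic fluorescence read (360 nm excitation, 485 nm emission, every 50 s over 45 min) of Omnia Y12 peptide (8 μM) phosphorylation by 12.5 nM human JAK1 at 1 mM ATP. Buffer: HEPES pH 7.4, MgCl2, Triton X-100, DTT; 2% DMSO. IC50 = concentration giving 50 POC on logistic curve.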

JAK2 = JAK2 (Homo sapiens (Human), UniProt O60674); test: JAK2 Inhibition Assay (Example C, Omnia kinase fluorescence peptide substrate assay); details: JAK2 Enzyme IC50 1 mM ATP, averaged IC50 ranges
Chain of JAK2 (O60674 whole entry): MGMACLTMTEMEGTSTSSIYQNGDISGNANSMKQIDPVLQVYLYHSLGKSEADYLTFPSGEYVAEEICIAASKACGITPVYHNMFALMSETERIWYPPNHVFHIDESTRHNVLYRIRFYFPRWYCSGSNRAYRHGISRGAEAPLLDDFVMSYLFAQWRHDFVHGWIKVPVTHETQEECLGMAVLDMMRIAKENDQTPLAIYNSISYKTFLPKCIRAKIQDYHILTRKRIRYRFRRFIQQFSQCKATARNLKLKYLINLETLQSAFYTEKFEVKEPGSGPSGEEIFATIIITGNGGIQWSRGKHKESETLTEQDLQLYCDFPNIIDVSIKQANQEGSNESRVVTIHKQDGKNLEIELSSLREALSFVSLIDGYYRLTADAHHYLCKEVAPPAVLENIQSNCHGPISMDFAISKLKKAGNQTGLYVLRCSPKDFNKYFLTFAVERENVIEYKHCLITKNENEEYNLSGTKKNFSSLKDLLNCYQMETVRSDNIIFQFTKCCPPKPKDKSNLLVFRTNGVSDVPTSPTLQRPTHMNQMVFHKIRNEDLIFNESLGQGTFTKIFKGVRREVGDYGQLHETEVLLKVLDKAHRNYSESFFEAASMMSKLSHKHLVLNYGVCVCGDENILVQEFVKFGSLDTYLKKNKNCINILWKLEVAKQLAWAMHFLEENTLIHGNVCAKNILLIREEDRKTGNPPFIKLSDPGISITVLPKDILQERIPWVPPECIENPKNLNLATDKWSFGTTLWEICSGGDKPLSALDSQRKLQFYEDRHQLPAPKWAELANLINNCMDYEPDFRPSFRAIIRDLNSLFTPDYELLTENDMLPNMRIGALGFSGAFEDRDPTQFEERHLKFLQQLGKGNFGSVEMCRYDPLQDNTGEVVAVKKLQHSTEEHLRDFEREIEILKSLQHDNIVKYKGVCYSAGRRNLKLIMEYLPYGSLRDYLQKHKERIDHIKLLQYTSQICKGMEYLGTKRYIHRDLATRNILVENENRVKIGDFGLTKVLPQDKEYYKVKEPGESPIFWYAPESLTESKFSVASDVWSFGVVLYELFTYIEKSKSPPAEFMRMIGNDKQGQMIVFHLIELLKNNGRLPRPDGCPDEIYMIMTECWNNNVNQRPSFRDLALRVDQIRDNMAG
Procedure, shortened: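 Kinetic fluorescence read of Omnia Y7 peptide (10 μM) phosphorylation, ex 360/em 485 nm every 50 s over 45 min, by 4 nM JAK2 at 1 mM ATP. Buffer 25 mM HEPES pH 7.4, 10 mM MgCl2, 0.01% Triton X-100, 1 mM DTT; final DMSO 2%. Percent-of-control values fitted by 4-parameter logistic for IC50.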

JAK3 = JAK3 (Homo sapiens (Human), UniProt P52333); test: JAK3 Inhibition Assay (Example D, Omnia kinase fluorescence peptide substrate assay)
Chain of JAK3 (P52333 whole entry): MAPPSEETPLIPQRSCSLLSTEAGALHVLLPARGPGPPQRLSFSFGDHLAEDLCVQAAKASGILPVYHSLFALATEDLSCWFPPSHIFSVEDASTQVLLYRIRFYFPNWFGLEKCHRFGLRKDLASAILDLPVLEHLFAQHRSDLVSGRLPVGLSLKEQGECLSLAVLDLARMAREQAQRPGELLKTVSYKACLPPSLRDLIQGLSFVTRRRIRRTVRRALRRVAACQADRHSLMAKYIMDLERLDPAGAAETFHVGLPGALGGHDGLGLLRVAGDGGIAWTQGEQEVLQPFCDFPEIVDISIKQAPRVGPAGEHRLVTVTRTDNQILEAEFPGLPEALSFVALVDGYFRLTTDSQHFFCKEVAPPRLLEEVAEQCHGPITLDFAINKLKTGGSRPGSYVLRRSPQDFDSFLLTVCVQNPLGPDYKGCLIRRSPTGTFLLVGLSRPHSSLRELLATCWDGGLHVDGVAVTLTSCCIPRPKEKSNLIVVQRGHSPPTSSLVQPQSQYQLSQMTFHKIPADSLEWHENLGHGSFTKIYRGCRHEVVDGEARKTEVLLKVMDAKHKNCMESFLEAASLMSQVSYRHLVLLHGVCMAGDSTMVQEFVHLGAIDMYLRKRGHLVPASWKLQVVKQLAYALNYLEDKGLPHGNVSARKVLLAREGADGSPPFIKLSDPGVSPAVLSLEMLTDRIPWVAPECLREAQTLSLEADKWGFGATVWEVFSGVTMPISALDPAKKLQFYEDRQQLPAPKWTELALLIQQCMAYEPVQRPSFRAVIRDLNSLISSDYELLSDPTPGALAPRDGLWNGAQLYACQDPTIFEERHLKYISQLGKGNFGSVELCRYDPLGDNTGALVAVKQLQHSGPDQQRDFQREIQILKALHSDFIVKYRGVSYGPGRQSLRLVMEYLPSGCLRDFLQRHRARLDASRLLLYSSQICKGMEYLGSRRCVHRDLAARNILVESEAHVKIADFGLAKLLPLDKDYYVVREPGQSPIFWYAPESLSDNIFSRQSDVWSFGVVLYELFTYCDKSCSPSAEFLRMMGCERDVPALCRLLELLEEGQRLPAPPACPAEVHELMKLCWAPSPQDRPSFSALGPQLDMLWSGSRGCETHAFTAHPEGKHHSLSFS
Procedure, shortened: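 Omnia Sox-peptide kinetic read (ex 360 nm, em 485 nm, every 50 s over 45 min) tracked phosphorylation of 10 μM Y7 peptide by 2 nM recombinant JAK3 at 1 mM ATP. Buffer: 25 mM HEPES pH 7.4, 10 mM MgCl2, 0.01% Triton X-100, 1 mM DTT, with 2% DMSO final.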

[1] = JAK1 Enzyme IC50 1 mM ATP, 1 mM ATP, averaged IC50 ranges

Chain of Human Tyk2 kinase domain (P29597 886-1187): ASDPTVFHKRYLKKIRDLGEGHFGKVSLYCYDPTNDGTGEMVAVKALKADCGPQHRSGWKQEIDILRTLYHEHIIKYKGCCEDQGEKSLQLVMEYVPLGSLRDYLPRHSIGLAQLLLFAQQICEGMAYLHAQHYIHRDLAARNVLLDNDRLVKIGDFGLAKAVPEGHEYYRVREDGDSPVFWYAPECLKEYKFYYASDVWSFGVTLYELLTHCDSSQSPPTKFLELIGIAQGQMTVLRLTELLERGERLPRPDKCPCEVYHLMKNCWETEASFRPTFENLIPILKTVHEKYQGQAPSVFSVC

IC50 (Human Tyk2 kinase domain) | IC50 (JAK1; [1]) | IC50 (JAK2) | IC50 (JAK3) | IC50 (JAK1) | Structure (SMILES)
10 to 100 nM | 10 to 100 nM | 10 to 100 nM | 1000 to 10000 nM | – | CCC(CC)n1cc(-c2nc(-c3cnn(CC4(CO)CC4)c3)cn3nccc23)cn1 [Example 192, (1-((4-(4-(1-(pentan-3-yl)-1H-pyrazol-4-yl)pyrazolo[1,5-a]pyrazin-6-yl)-1H-pyrazol-1-yl)methyl)cyclopropyl)methanol]
10 to 100 nM | – | 10 to 100 nM | 1000 to 10000 nM | 100 to 1000 nM | CCC(CC)n1cc(-c2nc(-c3cnn(CCS(=O)(=O)N(C)C)c3)cn3nccc23)cn1 [Example 23, N,N-dimethyl-2-(4-(4-(1-(pentan-3-yl)-1H-pyrazol-4-yl)pyrazolo[1,5-a]pyrazin-6-yl)-1H-pyrazol-1-yl)ethanesulfonamide]
100 to 1000 nM | – | 10 to 100 nM | 1000 to 10000 nM | 100 to 1000 nM | CCC[C@H](C)n1cc(-c2nc(-c3cnn(C(CO)CO)c3)cn3nccc23)cn1 [Example 82, (S)-2-(4-(4-(1-(pentan-2-yl)-1H-pyrazol-4-yl)pyrazolo[1,5-a]pyrazin-6-yl)-1H-pyrazol-1-yl)propane-1,3-diol]
100 to 1000 nM | – | 10 to 100 nM | 1000 to 10000 nM | 100 to 1000 nM | CCC(CC)n1cc(-c2nc(-c3cnn(CCNC4CC(CO)C4)c3)cn3nccc23)cn1 (centres unmarked) [Example 145, (3-((2-(4-(4-(1-(pentan-3-yl)-1H-pyrazol-4-yl)pyrazolo[1,5-a]pyrazin-6-yl)-1H-pyrazol-1-yl)ethyl)amino)cyclobutyl)methanol]
10 to 100 nM | – | 100 to 1000 nM | 1000 to 10000 nM | 100 to 1000 nM | CCC(CC)n1cc(-c2nc(-c3cnn(CC(=O)N(C)C)c3)cn3nccc23)cn1 [Example 5, N,N-dimethyl-2-(4-(4-(1-(pentan-3-yl)-1H-pyrazol-4-yl)pyrazolo[1,5-a]pyrazin-6-yl)-1H-pyrazol-1-yl)acetamide]
100 to 1000 nM | 1000 to 10000 nM | 100 to 1000 nM | 1000 to 10000 nM | – | C[C@@H]1CC[C@@H]1n1cc(-c2nc(-c3cnn(C[C@@H](O)CO)c3)cn3nccc23)cn1 [Example 217, (R)-3-(4-(4-(1-(cis-2-methylcyclobutyl)-1H-pyrazol-4-yl)pyrazolo[1,5-a]pyrazin-6-yl)-1H-pyrazol-1-yl)propane-1,2-diol]
10 to 100 nM | 1000 to 10000 nM | 10 to 100 nM | 1000 to 10000 nM | – | CCC(CC)n1cc(-c2nc(-c3cnn(C[C@H](O)CNC)c3)cn3nccc23)cn1 [Example 100, (R)-1-(methylamino)-3-(4-(4-(1-(pentan-3-yl)-1H-pyrazol-4-yl)pyrazolo[1,5-a]pyrazin-6-yl)-1H-pyrazol-1-yl)propan-2-ol]
10 to 100 nM | 1000 to 10000 nM | 100 to 1000 nM | 1000 to 10000 nM | – | CCC(CC)n1cc(-c2nc(-c3cnn([C@@H](C)CO)c3)cn3nccc23)cn1 [Example 125, (S)-2-(4-(4-(1-(pentan-3-yl)-1H-pyrazol-4-yl)pyrazolo[1,5-a]pyrazin-6-yl)-1H-pyrazol-1-yl)propan-1-ol]
10 to 100 nM | – | 10 to 100 nM | 1000 to 10000 nM | 100 to 1000 nM | CC[C@H](C1CC1)n1cc(-c2nc(-c3cnn(C[C@H](C)O)c3)cn3nccc23)cn1 [Example 218, (S)-1-(4-(4-(1-((R)-1-cyclopropylpropyl)-1H-pyrazol-4-yl)pyrazolo[1,5-a]pyrazin-6-yl)-1H-pyrazol-1-yl)propan-2-ol]
100 to 1000 nM | 1000 to 10000 nM | 100 to 1000 nM | 1000 to 10000 nM | – | CC(C)C[C@H](C)n1cc(-c2nc(-c3cnn(C[C@@H](O)CO)c3)cn3nccc23)cn1 [Example 75, (R)-3-(4-(4-(1-((S)-4-methylpentan-2-yl)-1H-pyrazol-4-yl)pyrazolo[1,5-a]pyrazin-6-yl)-1H-pyrazol-1-yl)propane-1,2-diol]
10 to 100 nM | – | 10 to 100 nM | 1000 to 10000 nM | 100 to 1000 nM | CCC(CC)n1cc(-c2nc(-c3cnn(CCN4CC[C@H](OC)C4)c3)cn3nccc23)cn1 [Example 137, (S)-6-(1-(2-(3-methoxypyrrolidin-1-yl)ethyl)-1H-pyrazol-4-yl)-4-(1-(pentan-3-yl)-1H-pyrazol-4-yl)pyrazolo[1,5-a]pyrazine]
10 to 100 nM | 10 to 100 nM | 10 to 100 nM | 1000 to 10000 nM | – | CCC(CC)n1cc(-c2nc(-c3cnn(CC(C)(C)CO)c3)cn3nccc23)cn1 [Example 191, 2,2-dimethyl-3-(4-(4-(1-(pentan-3-yl)-1H-pyrazol-4-yl)pyrazolo[1,5-a]pyrazin-6-yl)-1H-pyrazol-1-yl)propan-1-ol]
100 to 1000 nM | 1000 to 10000 nM | 100 to 1000 nM | 1000 to 10000 nM | – | CCC(CC)n1cc(-c2nc(-c3cnn([C@H]4CCC[C@H]4O)c3)cn3nccc23)cn1 (single isomer, unassigned) [compound 190]
10 to 100 nM | – | 10 to 100 nM | 1000 to 10000 nM | 100 to 1000 nM | CCC(CC)n1cc(-c2nc(-c3cnn(C[C@H](O)CC)c3)cn3nccc23)cn1 [Example 115, (R)-1-(4-(4-(1-(pentan-3-yl)-1H-pyrazol-4-yl)pyrazolo[1,5-a]pyrazin-6-yl)-1H-pyrazol-1-yl)butan-2-ol]
10 to 100 nM | – | 10 to 100 nM | 1000 to 10000 nM | 1000 to 10000 nM | CCC(CC)n1cc(-c2nc(-c3cnn(CCN4CC[C@H](O)C4)c3)cn3nccc23)cn1 [Example 141, (S)-1-(2-(4-(4-(1-(pentan-3-yl)-1H-pyrazol-4-yl)pyrazolo[1,5-a]pyrazin-6-yl)-1H-pyrazol-1-yl)ethyl)pyrrolidin-3-ol]
10 to 100 nM | – | 10 to 100 nM | 1000 to 10000 nM | 100 to 1000 nM | CCC(CC)n1cc(-c2nc(-c3cnn(C[C@H]4C[C@@H](O)C4)c3)cn3nccc23)cn1 [Example 120, (1s,3s)-3-((4-(4-(1-(pentan-3-yl)-1H-pyrazol-4-yl)pyrazolo[1,5-a]pyrazin-6-yl)-1H-pyrazol-1-yl)methyl)cyclobutanol]
10 to 100 nM | – | 10 to 100 nM | 1000 to 10000 nM | 1000 to 10000 nM | CCC(CC)n1cc(-c2nc(-c3cnn(C4CN(C(=O)C(C)C)C4)c3)cn3nccc23)cn1 [Example 42, 2-methyl-1-(3-(4-(4-(1-(pentan-3-yl)-1H-pyrazol-4-yl)pyrazolo[1,5-a]pyrazin-6-yl)-1H-pyrazol-1-yl)azetidin-1-yl)propan-1-one]
< 10 nM | 100 to 1000 nM | 10 to 100 nM | 1000 to 10000 nM | – | CCC(CC)n1cc(-c2nc(-c3cnn([C@H]4C[C@@H](O)C4)c3)cn3nccc23)cn1 [Example 119, cis-3-(4-(4-(1-(pentan-3-yl)-1H-pyrazol-4-yl)pyrazolo[1,5-a]pyrazin-6-yl)-1H-pyrazol-1-yl)cyclobutanol]
100 to 1000 nM | – | 100 to 1000 nM | 1000 to 10000 nM | 1000 to 10000 nM | CCC(CC)n1cc(-c2nc(-c3cnn(CCCN(C)C)c3)cn3nccc23)cn1 [Example 12, N,N-dimethyl-3-(4-(4-(1-(pentan-3-yl)-1H-pyrazol-4-yl)pyrazolo[1,5-a]pyrazin-6-yl)-1H-pyrazol-1-yl)propan-1-amine]
10 to 100 nM | 1000 to 10000 nM | 10 to 100 nM | 1000 to 10000 nM | – | CCC(CC)n1cc(-c2nc(-c3cnn(C[C@@H](O)CN(C)C)c3)cn3nccc23)cn1 [Example 101, (S)-1-(dimethylamino)-3-(4-(4-(1-(pentan-3-yl)-1H-pyrazol-4-yl)pyrazolo[1,5-a]pyrazin-6-yl)-1H-pyrazol-1-yl)propan-2-ol]
